Drawing on ChEMBL document CHEMBL1151389, “Antitumor agents 57. The isolation and structural elucidation of microhelenin-E, a new antileukemic nor-pseudoguaianolide, and microhelenin-F from Helenium microcephalum” (1982), this text covers EC50 and T/C for two compounds.

One assay deals with KB. Description: Cytotoxicity against human KB cells. As to conditions: read-out: ED50 (the source's name). The class given is functional.
The test system of a further assay is P388. Description: Antileukemic activity against mouse P388 cells […] in BDF1 mouse at 8 mg/kg. The class given is functional.

In brackets after ≈: the same amount, converted by molar mass.

In the case of `CC(C)=C1C(=O)O[C@@H]2C[C@@H](C)[C@]3(O)C=CC(=O)[C@@H]3C[C@H]12` [MICROHELENIN E], the EC50 with KB worked out at 1.38 µg/mL (≈ 4.99 µM). In addition, in the assay with P388, the T/C is 166%.
The corresponding values for `CC(C)=C1C(=O)O[C@@H]2C[C@@H](C)[C@@H]3C=CC(=O)[C@]3(O)C[C@H]12` [MICROHELENIN F] are 11 µg/mL (≈ 39.8 µM) and 116%.

The T/C is the result in the treated group divided by that in the control group, in per cent.
